The subject of the first test is AKT protein phosphorylated on serine 473 (P-AKT-S473) in PC3 human prostate carcinoma cells. In words: pAKT expression in PC3 human prostate carcinoma cells, MSD Multi-spot Biomarker detection (Test A). The format is cell-based. The conditions noted are these: Homo sapiens, PC-3, PC3 cells, 1 to 2 h incubation, P-AKT-S473, absolute IC50, mean of two independent experiments. The procedure:
The inhibitory activity of the molecules on AKT phosphorylation is measured using the MSD Multi-spot Biomarker detection technique from Meso Scale Discovery also described below. […] The primary antibody specific for […]) is coated on to an electrode in each well of the 96-well plates of the MSD kit: after the addition of a protein lysate to each well, the signal is visualized by adding a secondary detection antibody labeled with an electrochemiluminescent compound. The procedure followed is the one described in the kit. […] On day 2, the cells are incubated in the presence or absence of the test products for 1 to 2 h at 37° C. in the presence of 5% CO2. The molecules, diluted in dimethyl sulfoxide (DMSO Sigma #D2650), are added from a 20-times concentrated stock solution, the final percentage of DMSO being 0.1%. The molecules are tested either at a single concentration of less than or equal to 10 μM, or at increasing concentrations in a range that can extend from less than 1 nM to 10 μM. After this incubation, the cells are lysed for the preparation of the proteins. […] At this stage, the plates containing the lysates can be frozen at -20° C. or at -80° C. The wells of the 96 well plates of the MSD kit are saturated for 1 h at ambient temperature with the blocking solution of the MSD kit. Four washes are carried out with 150 μl of Tris Wash Buffer of the MSD kit. The lysates previously prepared are transferred into the 96-well multi-spot plates of the MSD kit and incubated for 1 h at ambient temperature, with shaking. Four washes are carried out with 150 μl of Tris Wash Buffer of the MSD kit. 25 μl of the MSD sulfo-tag detection antibody solution are added to the wells and incubated for 1 h at ambient temperature, with shaking. Four washes are carried out with 150 μl of Tris Wash Buffer of the MSD kit. 150 μl of Read Buffer of the MSD kit are added to the wells and the plates are read immediately on the S12400 instrument from Meso Scale Discovery. The instrument measures a signal for each well. Wells without cells and containing the lysis buffer serve to determine the background noise that will be subtracted from all the measurements (min). The wells containing cells in the absence of product and in the presence of 0.1% DMSO are considered to be the 100% signal (max). The percentage inhibition is calculated for each concentration of product tested, according to the following formula: (1-((test-min)/(max-min)))×100. […] Two independent experiments make it possible to calculate the mean of the IC50 values.
In the case of `C[C@H]1Cc2ccccc2N1C(=O)Cc1nc(N2CCOC(CO)C2)cc(=O)[nH]1` (single isomer, unassigned; (+)) [Example 31b], inhibition was half-maximal at 156 nM (IC50).

In turn, `CC1CN(C(=O)Cc2nc(N3CCOCC3)cc(=O)[nH]2)c2cccc(O)c21` (single isomer, unassigned; (-)) [Example 12c, (−)-2-{2-[4-hydroxy-3-methyl-2,3-dihydro-1H-indol-1-yl]-2-oxoethyl}-6-(morpholin-4-yl)pyrimidin-4(3H)-one] had an IC50 of 57 nM.

Staying with this test, now noted: PC3 cells, 1 to 2 h incubation, P-AKT-S473, absolute IC50, mean of two independent experiments.
`CC1Cc2c(OC(F)F)cccc2N1C(=O)Cc1nc(N2CCOCC2)cc(=O)[nH]1` (single isomer, unassigned; (+)) [Example 29d, (+)-2-{2-[4-(difluoromethoxy)-2-methyl-2,3-dihydro-1H-indol-1-yl]-2-oxoethyl}-6-(morpholin-4-yl)pyrimidin-4(3H)-one] registered an IC50 of 33 nM. On the same count and under the same terms, the value for `CC1Cc2c(F)cccc2N1C(=O)Cc1nc(N2CCOCC2)cc(=O)n1C` (single isomer, unassigned; (+)) [Example 30c, (+)-2-{2-[4-fluoro-2-methyl-2,3-dihydro-1H-indol-1-yl]-2-oxoethyl}-3-methyl-6-(morpholin-4-yl)pyrimidin-4(3H)-one] was 73 nM; that for `CC1Cc2c(Br)cccc2N1C(=O)Cc1nc(N2CCOCC2)cc(=O)n1C` (single isomer, unassigned; (+)) [Example 31c, (+)-2-{2-[4-bromo-2-methyl-2,3-dihydro-1H-indol-1-yl]-2-oxoethyl}-3-methyl-6-(morpholin-4-yl)pyrimidin-4(3H)-one] was 36 nM; that for `CC1Cc2c(OC(F)F)cccc2N1C(=O)Cc1nc(N2CCOCC2)cc(=O)n1C` (single isomer, unassigned; (+)) [Example 31d, (+)-2-{2-[4-(difluoromethoxy)-2-methyl-2,3-dihydro-1H-indol-1-yl]-2-oxoethyl}-3-methyl-6-(morpholin-4-yl)pyrimidin-4(3H)-one] was 167 nM.

Turning to `CC1Cc2c(Cl)cccc2N1C(=O)Cc1nc(N2CCOCC2)cc(=O)n1C` (single isomer, unassigned; (+)) [Example 33c, (+)-2-{2-[4-chloro-2-methyl-2,3-dihydro-1H-indol-1-yl]-2-oxoethyl}-3-methyl-6-(morpholin-4-yl)pyrimidin-4(3H)-one], it took 55 nM to reach half-maximal inhibition (IC50). `O=C(Cc1nc(N2CCOCC2)cc(=O)[nH]1)N1c2ccccc2CC1C1CC1` (single isomer, unassigned; (+)) [Example 34d, (+)-2-[2-(2-cyclopropyl-2,3-dihydroindol-1-yl)-2-oxoethyl]-6-morpholin-4-yl-3H-pyrimidin-4-one] displayed a half-maximal inhibitory concentration (IC50) of 48 nM.

Turning to `CC1Cc2c(cccc2C(F)(F)F)N1C(=O)Cc1nc(N2CCOCC2)cc(=O)[nH]1` (single isomer, unassigned; (+)) [Example 36d, (+)-2-{2-[2-methyl-4-(trifluoromethyl)-2,3-dihydro-1H-indol-1-yl]-2-oxoethyl}-6-(morpholin-4-yl)pyrimidin-4(3H)-one], it took 5 nM to reach half-maximal inhibition (IC50).

The compound `CC1Cc2c(ccc(F)c2Cl)N1C(=O)Cc1nc(N2CCOCC2)cc(=O)[nH]1` (single isomer, unassigned; (+)) [Example 37c, (+)-2-{2-[4-chloro-5-fluoro-2-methyl-2,3-dihydro-1H-indol-1-yl]-2-oxoethyl}-6-(morpholin-4-yl)pyrimidin-4(3H)-one] yielded a concentration for half-maximal inhibition (IC50) of 7 nM. `CCC1Cc2ccccc2N1C(=O)Cc1nc(N2CCOCC2)cc(=O)[nH]1` (single isomer, unassigned; (+)) [Example 42c, (+)-2-[2-(2-ethyl-2,3-dihydroindol-1-yl)-2-oxoethyl]-6-morpholin-4-yl-3H-pyrimidin-4-one]: the IC50 was found to be 380 nM.

The compound `CC(F)(C(=O)N1CCc2c(F)cccc21)c1nc(N2CCOCC2)cc(=O)[nH]1` (single isomer, unassigned; (+)) [Example 45c, (+)-2-[2-fluoro-1-(4-fluoro-2,3-dihydro-1H-indol-1-yl)-1-oxopropan-2-yl]-6-(morpholin-4-yl)pyrimidin-4(3H)-one] had a half-inhibitory concentration (IC50) of 260 nM.

Regarding `CC1Cc2c(Cl)cccc2N1C(=O)Cc1nc(N2CCOCC2)cc(=O)[nH]1` (single isomer, unassigned; (-)) [Example 3c, (−)-2-{2-[4-chloro-2-methyl-2,3-dihydro-1H-indol-1-yl]-2-oxoethyl}-6-(morpholin-4-yl)pyrimidin-4(3H)-one], the 50% inhibitory concentration (IC50) turned out to be 1 nM. The same measure, in the same setting: the value for `CC1CN(c2cc(=O)[nH]c(CC(=O)N3CCc4c(F)cccc43)n2)CCO1` (single isomer, unassigned; (-)) [Example 9b, (−)-2-[2-(4-fluoro-2,3-dihydroindol-1-yl)-2-oxoethyl]-6-(2-methylmorpholin-4-yl)-3H-pyrimidin-4-one] was 156 nM; that for `CC1Cc2c(O)cccc2N1C(=O)Cc1nc(N2CCOCC2)cc(=O)[nH]1` (single isomer, unassigned; (-)) [Example 10c, (−)-2-{2-[4-hydroxy-2-methyl-2,3-dihydro-1H-indol-1-yl]-2-oxoethyl}-6-(morpholin-4-yl)pyrimidin-4(3H)-one] was 22 nM. On the same count and under the same terms, the value for `CC1Cc2cc(F)ccc2N1C(=O)Cc1nc(N2CCOCC2)cc(=O)[nH]1` (single isomer, unassigned; (-)) [Example 14c, (−)-2-{2-[5-fluoro-2-methyl-2,3-dihydro-1H-indol-1-yl]-2-oxoethyl}-6-(morpholin-4-yl)pyrimidin-4(3H)-one] was 2 nM; that for `CC1Cc2cc(F)ccc2N1C(=O)Cc1nc(N2CCOCC2)cc(=O)n1C` (single isomer, unassigned; (-)) [Example 16c, (−)-2-{2-[5-fluoro-2-methyl-2,3-dihydro-1H-indol-1-yl]-2-oxoethyl}-3-methyl-6-(morpholin-4-yl)pyrimidin-4(3H)-one] was 13 nM. On the same count and under the same terms, then `CC1Cc2c(Br)cccc2N1C(=O)Cc1nc(N2CCOCC2)c(F)c(=O)[nH]1` (single isomer, unassigned; (-)) [Example 17a, (−)-2-{2-[4-bromo-2-methyl-2,3-dihydro-1H-indol-1-yl]-2-oxoethyl}-5-fluoro-6-(morpholin-4-yl)pyrimidin-4(3H)-one], with 45 nM; and `CC1Cc2c(ccc(F)c2F)N1C(=O)Cc1nc(N2CCOCC2)cc(=O)[nH]1` (single isomer, unassigned; (-)) [Example 18c, (−)-2-{2-[4,5-difluoro-2-methyl-2,3-dihydro-1H-indol-1-yl]-2-oxoethyl}-6-(morpholin-4-yl)pyrimidin-4(3H)-one], with 1 nM; and `CC1Cc2c(ccc(F)c2F)N1C(=O)Cc1nc(N2CCOCC2)cc(=O)n1C` (single isomer, unassigned; (-)) [Example 20c, (−)-2-{2-[4,5-difluoro-2-methyl-2,3-dihydro-1H-indol-1-yl]-2-oxoethyl}-3-methyl-6-(morpholin-4-yl)pyrimidin-4(3H)-one], with 13 nM.

On to `CC1Cc2ccccc2N1C(=O)Cc1nc(N2CCOCC2)cc(=O)[nH]1` (single isomer, unassigned; (-)) [Example 22b, (−)-2-[2-(2-methyl-2,3-dihydroindol-1-yl)-2-oxoethyl]-6-morpholin(D8)-4-yl-3H-pyrimidin-4-one], for which inhibition was half-maximal at 9 nM (IC50). On the same count and under the same terms, then `O=C(Cc1nc(N2CCOC(CO)C2)cc(=O)[nH]1)N1CCc2c(Cl)cccc21` (single isomer, unassigned; (-)) [Example 25b, (−)-2-[2-(4-Chloro-2,3-dihydroindol-1-yl)-2-oxoethyl]-6-(2-hydroxymethylmorpholin-4-yl)-3H-pyrimidin-4-one], with 27 nM. Still for that read-out and setting: then `O=C(Cc1nc(N2CCOCC2)cc(=O)[nH]1)N1c2ccccc2CC1c1ccccc1` (single isomer, unassigned; (-)) [Example 25d, (−)-6-(morpholin-4-yl)-2-{2-oxo-2-[2-phenyl-2,3-dihydro-1H-indol-1-yl]ethyl}pyrimidin-4(3H)-one], with 5 nM; and `CC1Cc2c(Br)cccc2N1C(=O)Cc1nc(N2CCOCC2)cc(=O)[nH]1` (single isomer, unassigned; (-)) [Example 26c, (−)-2-{2-[4-bromo-2-methyl-2,3-dihydro-1H-indol-1-yl]-2-oxoethyl}-6-(morpholin-4-yl)pyrimidin-4(3H)-one], with 3 nM.

In turn, `CC1Cc2c(F)cccc2N1C(=O)Cc1nc(N2CCOCC2)cc(=O)[nH]1` (single isomer, unassigned; (-)) [Example 27c, (−)-2-{2-[4-fluoro-2-methyl-2,3-dihydro-1H-indol-1-yl]-2-oxoethyl}-6-(morpholin-4-yl)pyrimidin-4(3H)-one] registered an IC50 of 4 nM.

Broadly, the IC50 is the concentration that gives 50% inhibition.

Source of the values: patent US9133168B2, “Pyrimidine derivatives, preparation thereof, and pharmaceutical use thereof as akt(pkb) phosphorylation inhibitors” (SANOFI, priority 2010, dated 2015).
